In patent US20210275506A1, “COMPOSITIONS AND METHODS OF TREATMENT” (Blueberry Therapeutics Limited, priority 2018, published 2021):
Read-outs that look alike come from different tables or passages of the source.

Key:
[1] = Solubility of the APIs in ethanol and water vehicles; format: physicochemical; details: for Solubility in words: water and ethanol; for solubility: water and ethanol vehicles, read-out: Solubility, 10 mg/ml API solution
[2] = DLS particle size (z-average) and polydispersity index of API:Nanocin formulations; format: physicochemical; parameters: z-average: unit not given here
P. acnes [3] = experiment: Bacterial lawn assay with soaked filter discs; format: cell-based, Pseudomonas acnes; details: Nanocin 1 mg/ml, Diclofenac 0.1-1 mg/ml
Experimental: The API's formulated with Nanocin were tested on 2 bacterial strains associated with acne. Staphylococcus epidermidis (S. epidermidis) and the anaerobic Pseudomonas acnes (P. acnes). Two types of assay were performed: (i) a bacterial lawn assay where the formulation was pipetted onto a Whatman filter disc and then added to a dried lawn of the bacteria growing on agar; and also, (ii) a liquid minimum inhibitory concentration (MIC) assay, where the bacteria were grown in 96 well plates. The bacterial lawn assay was much faster and easier to grow with the S. epidermidis as it was under aerobic conditions. The P. acnes growth on the agar plates was slower and difficult to capture on a camera (although possible to view by eye; see FIGS. 5c and 5d).

S. epidermidis = experiment: Liquid MIC assay in 96 well plates; format: cell-based, Staphylococcus epidermidis; details: Diclofenac 50-500 ug/ml
Experimental: (§1) The API's formulated with Nanocin were tested on 2 bacterial strains associated with acne. Staphylococcus epidermidis (S. epidermidis) and the anaerobic Pseudomonas acnes (P. acnes). Two types of assay were performed: (i) a bacterial lawn assay where the formulation was pipetted onto a Whatman filter disc and then added to a dried lawn of the bacteria growing on agar; and also, (ii) a liquid minimum inhibitory concentration (MIC) assay, where the bacteria were grown in 96 well plates.
(§2) However, results from both were reliable.

P. acnes [4] = experiment: Liquid MIC assay in 96 well plates; format: cell-based, Pseudomonas acnes; details: Diclofenac 50-500 ug/ml
Experimental: as §1, §2

IL-8 = experiment: Inflammation assay: IL-8 release of LPS-stimulated THP-1 cells; format: cell-based, human; details: for potency at inhibiting the LPS inflammatory response, in words / MIC for inhibiting the LPS inflammatory response (IL-8): dose range 0-30 ug/ml; for MIC for inhibiting the LPS inflammatory response (IL-8) / IL-8 release, in words: 24 h; for IL-8 release, in words: 30 ug/ml API, 100 ug/ml Nanocin
TNF-α = experiment: Inflammation assay: TNF-α release of LPS-stimulated THP-1 cells; format: cell-based, human; details: final concentration 1 or 0.1 ug/ml
Experimental: The release of cytokines (looking particularly at those associated with acne inflammation-TNF-α, IL-8, IL-1α) after stimulation with lipopolysaccharide (LPS) is a valid model system to test compounds for potential anti-inflammatory effects (Reference 1)
To standardise conditions for the assay, a LPS dose (0-1 ug/ml) was investigated on TNF-α, IL-8 and IL-1α response, over a time period from 2,4 and 24 hours.
A 1:1 mg/ml (Nanocin:API) was initially formulated in 20% ethanol and the stock formulation was then diluted down with serum free media and tested at a final concentration of 1 or 0.1 ug/ml.

[5] = In vitro permeation, Franz cell, ToF-SIMS of cross sections and tape strips; format: in vitro ADME, pig; details: for permeation, key findings: all methods
[6] = aqueous with cosolvent or surfactant or cyclodextrin, 5% ethanol
[7] = aqueous with cosolvent or surfactant or cyclodextrin, 10% ethanol
[8] = aqueous with cosolvent or surfactant or cyclodextrin, 15% ethanol
[9] = aqueous with cosolvent or surfactant or cyclodextrin, 20% ethanol
[10] = aqueous with cosolvent or surfactant or cyclodextrin, 30% ethanol

With Cc1ccc(-c2cc(C(F)(F)F)nn2-c2ccc(S(N)(=O)=O)cc2)cc1 [Celecoxib] the Solubility in words [1] was “insolubility”, the solubility [1, 6] was < 10000 µg/mL and the solubility [1, 7] was < 10000 µg/mL. The solubility [1, 8] was < 10000 µg/mL, the solubility [1, 9] was < 10000 µg/mL and the solubility [1, 10] was < 10000 µg/mL. For the same molecule, the solubility ([1]; water) was < 10000 µg/mL.

In the case of O=C(O)Cc1ccccc1Nc1c(Cl)cccc1Cl [Diclofenac], the Solubility in words [1] was “most soluble”, the solubility [1, 7] was > 10000 µg/mL and the solubility [1, 8] was > 10000 µg/mL. For the same molecule, the solubility [1, 9] was > 10000 µg/mL, the solubility [1, 10] was > 10000 µg/mL and the solubility ([1]; water) was > 10000 µg/mL. The PDI ([2]; 0.33:1 mg/ml API:N) was 0.251, the PDI ([2]; 1:1 mg/ml API:N) was 0.817 and the “inhibition of bacterial growth (halo around disc)” value (P. acnes [3]) was “not seen”. The “bacterial growth inhibition by API alone” value (S. epidermidis) was “did not exhibit any bacterial growth inhibition”, the “bacterial growth inhibition / anti-bacterial activity of API alone” value (P. acnes [4]) was “did not exhibit any bacterial growth inhibition” and the “potency at inhibiting the LPS inflammatory response, in words” value (IL-8) was “more potent than Ibuprofen”. The “MIC for inhibiting the LPS inflammatory response (IL-8)” value (IL-8) was 1 µg/mL, the “LPS-stimulated IL-8 response, in words” value (IL-8; final concentration 1 or 0.1 ug/ml) was “reduced the LPS-stimulated inflammatory response” and the “LPS-stimulated TNF-α response, in words” value (TNF-α) was “reduced the LPS-stimulated inflammatory response”. For the same molecule, the “intensity of diclofenac salt ion markers in stratum corneum” value ([5]; ToF-SIMS cross sections, 1 mg/ml Diclofenac) was “slight elevation” and the “diclofenac salt ion markers in tape strips 1-3 (permeation into top layers of stratum corneum)” value ([5]; ToF-SIMS tape strips, 1 mg/ml Diclofenac) was “does not and none”.

With CC(C)Cc1ccc(C(C)C(=O)O)cc1 (centres unmarked) [Ibuprofen] the Solubility in words [1] was “better solubility in water and ethanol”, the PDI ([2]; 0.33:1 mg/ml API:N) was 0.289 and the z-average ([2]; 0.33:1 mg/ml API:N) was 194.1. The PDI ([2]; 1:1 mg/ml API:N) was 0.34, the z-average ([2]; 1:1 mg/ml API:N) was 311.9 and the “IL-8 release, in words” value (IL-8) was “very little effect on reducing the IL-8 release”. The “permeation, key findings” value [5] was “no evidence”.

For CO[C@H]1C[C@@H]2CC[C@@H](C)[C@@](O)(O2)C(=O)C(=O)N2CCCC[C@H]2C(=O)O[C@H]([C@H](C)C[C@@H]2CC[C@@H](O)[C@H](OC)C2)CC(=O)[C@H](C)/C=C(\C)[C@@H](O)[C@@H](OC)C(=O)[C@H](C)C[C@H](C)/C=C/C=C/C=C/1C [Rapamycin], the solubility [1, 6] was < 10000 µg/mL, the solubility [1, 7] was < 10000 µg/mL and the solubility [1, 8] was < 10000 µg/mL. The solubility [1, 9] was < 10000 µg/mL, the solubility [1, 10] was > 10000 µg/mL and the solubility ([1]; water) was < 10000 µg/mL. The “MIC for inhibiting the LPS inflammatory response (IL-8)” value (IL-8) was 1 µg/mL and the “permeation, key findings” value [5] was “no evidence”.

For C=CC[C@@H]1/C=C(\C)C[C@H](C)C[C@H](OC)[C@H]2O[C@@](O)(C(=O)C(=O)N3CCCC[C@H]3C(=O)O[C@H](/C(C)=C/[C@@H]3CC[C@@H](O)[C@H](OC)C3)[C@H](C)[C@@H](O)CC1=O)[C@H](C)C[C@@H]2OC [Tacrolimus], the “Solubility, 10 mg/ml API solution” value ([1]; 10% ethanol) was “x(better)”, the solubility [1, 6] was < 10000 µg/mL and the solubility [1, 8] was > 10000 µg/mL. For the same molecule, the solubility [1, 9] was > 10000 µg/mL, the solubility [1, 10] was > 10000 µg/mL and the solubility ([1]; water) was < 10000 µg/mL. It also gave a PDI ([2]; 0.33:1 mg/ml API:N) of 0.332, a z-average ([2]; 0.33:1 mg/ml API:N) of 41.54 and a PDI ([2]; 1:1 mg/ml API:N) of 1. For the same molecule, the z-average ([2]; 1:1 mg/ml API:N) was 277.1, the “IL-8 release, in words” value (IL-8) was “more effective anti-inflammatory” and the “potency at inhibiting the LPS inflammatory response, in words” value (IL-8) was “more potent than Ibuprofen”. The “MIC for inhibiting the LPS inflammatory response (IL-8)” value (IL-8) was 0.3 µg/mL and the “permeation, key findings” value [5] was “no evidence”.
